Assay results published in patent publication EP4772164A1, “CERAMIDE MIXTURE FOR IMPROVING COMPATIBILITY” (Amorepacific Corporation, priority 2023, dated 2025).

Tests used:
Assay type in all cases: physicochemical
[1] = Ceramide compatibility by differential scanning calorimetry (DSC): melting enthalpy and compatibility ratio; conditions: for Peak area / Melting enthalpy: DSC; for Compatibility ratio 104+NPO / Compatibility ratio 104+NPS: from total melting enthalpy; for Compatibility ratio 104+NPO / Enthalpy (J/g) NPO / Compatibility ratio 104+NPS / Enthalpy (J/g) NPS: by 104 Ratio; for Enthalpy (J/g) NPO / Enthalpy (J/g) NPS: total melting enthalpy of mixed ceramides; for Enthalpy (J/g) NPO: 104 with NPO; for Melting enthalpy: total melting enthalpy of single unmixed ceramide; for Ratio: measured peak area / calculated theoretical value, PC-104 and NPS; for Enthalpy (J/g) NPS: 104 with NPS
Description: Ceramide compatibility was evaluated through measurement of differential scanning calorimetry (DSC). It is known that a ceramide compatibility study through DSC measurement may be utilized when measurement is not performed by polythermal and isothermal methods, or when slurry density of a solution is high, but has almost never been utilized in a ceramide study. In prediction of solubility of indomethacin (IMC) in polymers such as hydroxypropyl methylcellulose (HPMC) and polyvinylpyrrolidone (PVP), it was also confirmed that solubility prediction of a DSC method is excellent in a combination of IMC and HPMC. Since confirming compatibility between ceramides is a situation of confirming solubility when two solid-phase substances are mixed, a DSC experiment is determined to be very suitable, and thus the present inventors confirmed compatibility by measuring enthalpy of each ceramide, predicting enthalpy of a binary mixture, and actually measuring the same. For DSC measurement, a Thermal Analysis System (differential scanning calorimetry) such as Discovery DSC 250 of TA Instruments was used. In a DSC graph, melting enthalpy was measured by obtaining a peak area, and a unit of the peak area was J/g. A compatibility ratio was calculated by comparing a peak area measurement result of a sample in which ceramides are mixed and a calculated theoretical value (calculated sum area). A compatibility ratio is a ratio indicating compatibility when two components are mixed, and may be used to evaluate whether two components are stable even when mixed and may maintain desired characteristics.. […]
A single sample in which PC-104 and ceramide NP are unmixed (10:0 or 0:10), and samples in which PC-104 and ceramide NP are mixed at ratios such as 1:9 to 9.99:0.01, were each made, a DSC peak area was measured, and an actually measured DSC peak area and a calculated theoretical value according to a ratio of PC-104 and ceramide NP were compared. For compatibility evaluation, a ceramide mixing ratio having a low compatibility ratio was confirmed.

[2] = as above; conditions: for Ratio: measured peak area / calculated theoretical value
[3] = Solubility of ceramide or ceramide mixture in pure ethanol (94.5% or more)
From the text: Through Example 1, an effect of improvement of compatibility according to ceramide mixing confirmed through DSC measurement was confirmed. Accordingly, an effect of improvement of solubility was additionally confirmed. Specifically, solubility was confirmed as to how well the ceramide or the ceramide mixture dissolves in pure ethanol (94.5% or more).

[4] = PC-104 and NPO at stated weight mixing ratio
[5] = PC-104 and NPS at stated weight mixing ratio

Peak area [1, 4] [J/g] | Compatibility ratio 104+NPO [1] | Enthalpy (J/g) NPO [1] [J/g] | Melting enthalpy [1] [J/g] | Ratio ([2]; PC-104 and NPO) | Peak area [1, 5] [J/g] | Compatibility ratio 104+NPS [1] | Ratio [1] | Enthalpy (J/g) NPS [1] [J/g] | EtOH solubility (mg/uL) [3] | Peak area ([2]; DSC, PC-104 and NPM at stated weight mixing ratio) [J/g] | DSC enthalpy (J/g) of corresponding composition ([2]; PC-104 and NPM compositions of the solubility test) [J/g] | Calculated sum area ([2]; calculated theoretical value from the two unmixed ceramides, PC-104 and NPM) [J/g] | Compatibility ratio 104+NPM ([2]; from total melting enthalpy, by 104 Ratio) | Ratio ([2]; PC-104 and NPM) | Enthalpy (J/g) NPM ([2]; total melting enthalpy of mixed ceramides, 104 with NPM, by 104 Ratio) [J/g] | Compound
89.0 | 1.00 | 89.0 | 89.0 | 1.00 | – | – | – | – | – | – | – | – | – | – | – | CCCCCCCC/C=C\CCCCCCCC(=O)N[C@@H](CO)[C@H](O)[C@H](O)CCCCCCCCCCCCCC [NPO, CERAMIDE NP(oleic acid)]
– | – | – | 114.6 | – | 114.6 | 1.00 | 1.00 | 114.6 | – | – | – | – | – | – | – | CCCCCCCCCCCCCCCCCC(=O)NC(CO)C(O)C(O)CCCCCCCCCCCCCC (centres unmarked) [NPS, CERAMIDE NP(stearic acid)]
151.6 | 1.00 | 151.6 | 151.6 | 1.00 | 151.6 | 1.00 | 1.00 | 151.6 | about 0.04636 mg/uL | 151.6 | 151.6 | 151.6 | 1.00 | 1.00 | 151.6 | CCCCCCCCCCCCCCCC(=O)N(CCO)CC(O)CN(CCO)C(=O)CCCCCCCCCCCCCCC [PC-104, HYDROXYPROPYL BISPALMITAMIDE MEA]
